# Like-named read-outs stand apart in the source and are kept apart here.
# Legend:
# [1] = clinical plasma, cited from earlier work
# [2] = clinical, cited from earlier work
# [3] = test system: proliferative duodenum organoids; assay: Cell viability (Cell Titer Glo 3D, ATP) in proliferative organoid model; settings: for IC50: Homo sapiens, 72 h, read-out: IC50 (μM) Prolif.
# Protocol: (§1) Organoids were grown for 7–10 days then dissociated using TrypLE™ Express Enzyme, as described above. Single cells were resuspended in BME at a density of 5–6 × 10^5 cells/mL on ice and plated as 5 μL/well domes in clear-bottom 96-well plates (Corning). The domes were cured for 10–15 min at 37°C and overlaid with 100 μL of growth media replaced every 2–3 days.
# (§2) Compounds were administered after 5–6 days in growth medium for proliferative organoids or after an additional 4 days in differentiation medium for differentiated organoids. Organoid media was replaced with 90 μL fresh media immediately prior to dosing. Compounds were diluted in growth or differentiation medium and administered as a 5-fold dilution series at 5-8 concentrations with corresponding 0.5% DMSO vehicle control (1% DMSO for aspirin), at 10 μL/well in triplicate. […] After 3 days of treatment, cultures were imaged by brightfield microscopy (THUNDER DMi8 inverted light microscope with a 2.5× objective and a DFC9000 GTC camera (Leica)). Wells were precluded from analysis on visual quality control (i.e., organoid loss due to BME degradation/dislodging or insufficient seeding density) congruent with cytotoxicity analysis. An equal volume of Cell Titer Glo 3D Reagent (Promega) was added to each well as described by the manufacturer’s instructions. Luminescence was measured on EnSight and EnVision (Perkin Elmer) plate readers and normalized to on-plate vehicle controls (0.5%–1% DMSO) in corresponding growth or differentiation medium. Experiments were conducted in technical triplicates and repeated in organoids from 3 different donors (donor demographics noted in Supplementary Table S1). Normalized viability was averaged at each concentration for each donor, and mean of donors was fit to a 4-Parameter Logistic (4PL) curve using Prism (GraphPad) to estimate the half-maximal inhibitory concentration (IC50) for each compound.
# (§3) To compare toxicity responses of proliferative and differentiated organoids, proliferative organoids were grown 5–6 days in OGM prior to dosing, while differentiated organoids were transitioned to ODM for an additional 4 days prior to dosing (Figure 2A). Both proliferative and differentiated organoids were incubated with compounds or a 0.5%–1% DMSO vehicle control (as indicated) for 3 days prior to measuring ATP levels as a readout for cell viability. […] Compound-treated organoid ATP readouts were normalized to vehicle controls and a half-maximal inhibitory concentration (IC50) was calculated from dose-response curves of organoid viability for five compounds across 3 donor organoid lines.
# [4] = Cell viability (Cell Titer Glo 3D, ATP) in differentiated organoid model; settings: human, differentiated duodenum organoids
# Protocol: as §1, §2, §3
# [5] = test system: differentiated duodenum organoids; assay: as above; settings: for IC50: Homo sapiens, read-out: IC50 (μM) Diff.
# Protocol: as §1, §2, §3
# [6] = ref Peters et al., 2019, 2020, Belair et al.
# [7] = patients, ref Peters et al., 2019
SMILES,"Cmax [1, 6]","Incidence of Diarrhea (%) ([2]; oral dosing, ref Rampal et al., 2001)","Incidence of Diarrhea (%) ([2]; oral dosing, ref Rampal et al., 2001, listed as Aspirin)","Cmax ([1]; high-dose oral administration, ref Nagelschmitz et al. (2014))","decline in viability ([3]; 200 µM, proliferative organoids, 3 days)",IC50 [3],"decreases in viability ([3]; below 100 µM, proliferative organoids, 3 days)","IC50/Cmax Prolif. ([3]; human, 3 days)","cytotoxicity at 3 days, 200 µM [4]",IC50 [5],"decreases in viability ([5]; below 100 µM, differentiated organoids, 3 days)","IC50/Cmax Diff. ([5]; human, 3 days)","Incidence of Diarrhea (%) [2, 7]","fold increase in IC50, differentiated vs proliferative organoids ([5]; IC50 differentiated / IC50 proliferative)"
COc1cc2c(c(OC)c1OC)-c1ccc(OC)c(=O)cc1[C@@H](NC(C)=O)CC2 [colchicine],0.017 µM,,,,,,,,,,,,,
"CC(=O)Oc1ccccc1C(=O)O [aspirin, Acetylsalicylic acid]",,less than 2%,1.8%,26.9 µM,no decline,1770 µM,minimal,65.9,~25%,626 µM,minimal,23.3,,
CN(C)C/C=C/C(=O)Nc1cc2c(Nc3ccc(F)c(Cl)c3)ncnc2cc1O[C@H]1CCOC1 [afatinib],0.078 µM,,,,,0.036 µM,,,,4.16 µM,,,96%,over 100 fold
CNC(=O)c1cc(Oc2ccc(NC(=O)Nc3ccc(Cl)c(C(F)(F)F)c3)cc2)ccn1 [sorafenib],6.2 µM,,,,,10 µM,,,,8.42 µM,,,43%,

# — PMC11799252, “The differentiation state of small intestinal organoid models influences prediction of drug-induced toxicity” (Frontiers in Cell and Developmental Biology, 2025)
